Test results reported in patent US6761123B2, “INFUSION OF COMBUSTION GASES INTO BALLAST WATER PREFERABLY UNDER LESS THAN ATMOSPHERIC PRESSURE TO SYNERGISTICALLY KILL HARMFUL AQUATIC NUISANCE SPECIES BY SIMULTANEOUS HYPERCAPNIA, HYPOXIA AND ACIDIC PH LEVEL” (MH Systems, priority 2001, dated 2004).

Legend:
[1] = Oxygen concentration and pH of seawater bubbled with the gas; format: physicochemical
Description: The schematic of an experimental setup in validation of the principles and methods of the present invention (and also, a miniature scale, the gaseous exchange system) is shown in FIG. 1. Three parallel incubations were done for each experiment. Several organisms were incubated in 1.5 l of seawater at 22° C. in large Erlenmeyer flasks. Each incubation was equilibrated with the respective gas using aquarium stones before any organisms were introduced. The aerobic control was bubbled from an aquarium pump for approximately 15 min and left open to the atmosphere after addition of specimens. An anaerobic incubation was bubbled with 99.998% nitrogen for 15 min. After introduction of the organisms, the bubbling was continued for another 10 min and then the container was closed with a rubber stopper or the bubbling was continued. The incubation in […] treated similarly except that the gas mix was used instead of nitrogen. The oxygen concentrations were measured after the initial bubbling period using a Strathkelvin oxygen electrode with a Cameron instruments OM-200 oxygen analyzer. Values of pH were determined using a combination electrode and a Radiometer pH meter.

[2] = test system: plankton sample (mainly copepods); test: Incubation of plankton sample (mainly copepods) in gas-equilibrated seawater; format: in vivo
Excerpt: (§1) The purpose of the experiments described here was to obtain data on the effects of “inert gas” on marine organisms. “Inert gas” of a mixture hereinafter called trimix—a commercially available gas mixture of […], 12% CO2 and 84% nitrogen resembling the gas generated by commercially used marine “inert gas generators”—was used. Both adult and young adult marine organisms were chosen for two reasons: a) to make the size of specimens amenable for the experimental setup and b) to raise the significance of possible effects since adults of a species are typically more tolerant of environmental changes than juveniles or larvae. All marine organisms were collected fresh from the coastal waters off La Jolla, Calif. and used immediately. They are, in that particular environment, not necessarily nuisance organisms. Some of the organisms might be so considered, however, should they be introduced into other waters. […]
(§2) The schematic of an experimental setup in validation of the principles and methods of the present invention (and also, a miniature scale, the gaseous exchange system) is shown in FIG. 1. […] The oxygen concentrations were measured after the initial bubbling period using a Strathkelvin oxygen electrode with a Cameron instruments OM-200 oxygen analyzer. Values of pH were determined using a combination electrode and a Radiometer pH meter. […]

[3] = test system: brittle stars; test: Incubation of brittle stars in gas-equilibrated seawater, survival by motile response; format: in vivo; conditions: transfer to aerobic conditions
Excerpt: as §1, §2

[4] = test system: barnacles; test: Incubation of barnacles in gas-equilibrated seawater, survival by withdrawal of feet when disturbed; format: in vivo; conditions: 1.5 l seawater, 22° C., equilibrated with gas
Excerpt: as §1, §2

[5] = test system: mussels; test: Incubation of mussels in gas-equilibrated seawater, survival by shell closing on tactile stimulus; format: in vivo; conditions: after 95 min incubation
Excerpt: as §1, §2

N#N [nitrogen]
oxygen concentration of the incubation ([1]; measured after the initial bubbling period, oxygen electrode): non-detectable | pH value of the seawater bubbled with the gas ([1]; seawater, normal pH 8, trimix value after initial 10 min of vigorous bubbling): 8 | time after which plankton (mainly copepods) stopped moving ([2]; 1.5 l seawater, 22° C., equilibrated with gas): 15 min | revival of plankton (mainly copepods) ([2]; after they stopped moving): could not be revived | movement of brittle stars after transfer into aerated water [3]: started to move again | state of barnacles after incubation (withdrawal of feet when disturbed) [4]: still behaved normally | response of mussels to tactile stimuli (closing shells) [5]: still responded to tactile stimuli by closing their shells | state of mussel shells [5]: open
